Measured values from US8232426B2, “Aminoethylaromatic compounds suitable for treating disorders that respond to modulation of the dopamine D3 receptor” (Abbott GmbH & Co. KG, priority 2004, dated 2012).
Counter-ions that a name gives are not always drawn. Like-named read-outs stand apart in the source and are kept apart here.

Assays:
[1] = molecular target: T1, human dopamine D3 receptors (Homo sapiens, UniProt P35462); test: Dopamine D3 receptor binding ([125I]-iodosulpride displacement)
T1 construct: expressed in transfected cells; host or cells: HEK-293
Experimental: (§1) Each assay mixture was run in triplicate. • The incubation buffer contained 50 mM tris, 120 mM NaCl, 5 mM KCl, 2 mM CaCl2, 2 mM MgCl2 and 0.1% bovine serum albumin, 10 μM quinolone and 0.1% ascorbic acid (prepared fresh daily). […] Each assay mixture was run in triplicate. • The incubation buffer contained 50 mM tris, 120 mM NaCl, 5 mM KCl, 2 mM CaCl2, 2 mM MgCl2 and 0.1% bovine serum albumin. The buffer was adjusted to pH 7.4 with HCl. • Measurement and Analysis: • After having been incubated at 25° C. for 60 minutes, the assay mixtures were filtered through a Whatman GF/B glass fiber filter under vacuum using a cell collecting device. The filters were transferred to scintillation viols using a filter transfer system. After 4 ml of Ultima Gold® (Packard) have been added, the samples were shaken for one hour and the radioactivity was then counted in a Beta-Counter (Packard, Tricarb 2000 or 2200CA).

[2] = molecular target: T2, human dopamine D2L receptors (long isoform) (Homo sapiens, UniProt P14416); test: Dopamine D2L receptor binding ([125I] iodospiperone displacement); details: selectivity ratio of receptor binding constants, D2L versus D3, HEK-293 membranes
T2 construct: expressed in transfected cells; host or cells: HEK-293
Experimental: as §1

[3] = membranes of HEK-293 cells stably expressing human D3 receptor, 0.1 nM [125I]-iodosulpride, 25° C., 60 minutes, read-out: Ki(D3)*

T1 sequence (P35462 whole entry): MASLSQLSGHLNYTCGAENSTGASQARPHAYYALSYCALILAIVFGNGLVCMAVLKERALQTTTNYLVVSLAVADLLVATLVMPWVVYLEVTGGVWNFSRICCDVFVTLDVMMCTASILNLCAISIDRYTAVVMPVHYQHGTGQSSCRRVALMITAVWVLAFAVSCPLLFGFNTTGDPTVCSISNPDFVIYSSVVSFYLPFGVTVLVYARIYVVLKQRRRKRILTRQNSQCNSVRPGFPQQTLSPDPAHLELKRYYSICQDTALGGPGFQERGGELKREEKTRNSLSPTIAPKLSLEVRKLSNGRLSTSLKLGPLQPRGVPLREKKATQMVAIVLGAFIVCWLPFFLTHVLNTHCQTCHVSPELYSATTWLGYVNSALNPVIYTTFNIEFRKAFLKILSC
T2 sequence (P14416 whole entry, canonical isoform): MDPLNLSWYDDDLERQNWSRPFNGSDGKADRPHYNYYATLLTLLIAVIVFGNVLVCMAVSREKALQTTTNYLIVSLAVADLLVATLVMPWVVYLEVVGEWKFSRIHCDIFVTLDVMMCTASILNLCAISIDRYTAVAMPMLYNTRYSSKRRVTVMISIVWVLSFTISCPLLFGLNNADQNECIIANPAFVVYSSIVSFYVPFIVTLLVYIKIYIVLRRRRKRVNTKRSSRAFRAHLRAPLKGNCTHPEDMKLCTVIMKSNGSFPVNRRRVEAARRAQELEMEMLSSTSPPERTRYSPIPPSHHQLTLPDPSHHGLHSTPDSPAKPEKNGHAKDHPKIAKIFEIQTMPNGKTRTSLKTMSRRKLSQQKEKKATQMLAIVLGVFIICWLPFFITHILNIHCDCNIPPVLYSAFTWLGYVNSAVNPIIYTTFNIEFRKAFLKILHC

Compound | Ki [1] | Ki(D2)*/Ki(D3)* [2] | Ki [1, 3]
CCCN[C@@H](C)Cc1ccc(NS(=O)(=O)c2ccc(OC(F)(F)F)cc2)cc1 [Example 1, N-[4-((S)-2-Propylamino-propyl)-phenyl]-4-trifluoromethoxy-benzenesulfonamide] | 0.043 µM | 41 | 
CCCN[C@H](C)Cc1ccc(NS(=O)(=O)c2ccc(OC(F)(F)F)cc2)cc1 [Example 2, N-[4-((R)-2-Propylamino-propyl)-phenyl]-4-trifluoromethoxy-benzenesulfonamide] | 0.021 µM | 57 | 
CCCNC(C)Cc1ccc(NS(=O)(=O)c2ccc(C(C)C)cc2)cc1.Cl (centres unmarked) [Example 3, 4-Isopropyl-N-[4-(2-propylamino-propyl)-phenyl]-benzenesulfonamide×HCl] |  | 33 | 0.0028 µM
CCCNCCc1ccc(NS(=O)(=O)c2ccc(C(C)C)cc2)cc1.Cl [Example 6, 4-Isopropyl-N-[4-(2-propylamino-ethyl)-phenyl]-benzenesulfonamide×HCl] |  | 22 | 0.0022 µM
CC(C)c1ccc(S(=O)(=O)Nc2ccc(CCNCC3CC3)cc2)cc1 [Example 7, N-{4-[2-(Cyclopropylmethyl-amino)-ethyl]-phenyl}-4-isopropyl-benzenesulfonamide×HCl] |  | 23 | 0.018 µM
CCCN(CCC)CCc1ccc(NS(=O)(=O)c2ccc(C(C)C)cc2)cc1 [Example 8, N-[4-(2-Dipropylamino-ethyl)-phenyl]-4-isopropyl-benzenesulfonamide×HCl] |  | 54 | 0.0002 µM
CCCN(CCC)CCc1ccc(N(C)S(=O)(=O)c2ccc(C(C)C)cc2)cc1 [Example 9, N-[4-(2-Dipropylamino-ethyl)-phenyl]-4-isopropyl-N-methyl-benzenesulfonamide×HCl] |  | 40 | 0.002 µM
CCCNCCc1ccc(NS(=O)(=O)c2ccc(C(C)C)cc2)cn1 [Example 10, 4-Isopropyl-N-[6-(2-propylamino-ethyl)-pyridin-3-yl]-benzenesulfonamide×2HCl] |  | 53 | 0.042 µM
CCCN1CCCC1Cc1ccc(NS(=O)(=O)c2ccc(C(C)C)cc2)cc1 (centres unmarked) [Example 11, 4-Isopropyl-N-[4-(1-propyl-pyrrolidin-2-ylmethyl)-phenyl]-benzenesulfonamide] |  | 16 | 0.00058 µM
C=CCNCCc1ccc(NS(=O)(=O)c2ccc(C(C)C)cc2)cc1.Cl [Example 13, N-[4-(2-Allylamino-ethyl)-phenyl]-4-isopropyl-benzenesulfonamide×HCl] |  | 74 | 0.0017 µM
C=CCNCCc1ccc(N(C)S(=O)(=O)c2ccc(C(C)C)cc2)cc1.Cl [Example 14, N-[4-(2-Allylamino-ethyl)-phenyl]-4-isopropyl-N-methyl-benzenesulfonamide×HCl] |  | 40 | 0.027 µM
C=CCNCCc1ccc(N(CCC)S(=O)(=O)c2ccc(C(C)C)cc2)cc1.Cl [Example 15, N-[4-(2-Allylamino-ethyl)-phenyl]-4-isopropyl-N-propyl-benzenesulfonamide×HCl] |  | 22 | 0.022 µM
C=CCNCCc1ccc(NS(=O)(=O)c2ccc(OC(F)(F)F)cc2)cc1.Cl [Example 16, N-[4-(2-Allylamino-ethyl)-phenyl]-4-trifluoromethoxy-benzenesulfonamide×HCl] |  | 79 | 0.031 µM
C=CCNCCc1ccc(N(C)S(=O)(=O)c2ccc(OC(F)(F)F)cc2)cc1 [Example 17, N-[4-(2-Allylamino-ethyl)-phenyl]-N-methyl-4-trifluoromethoxy-benzenesulfonamide×HCl] |  | 75 | 0.034 µM
C=CCNCCc1ccc(N(CCC)S(=O)(=O)c2ccc(OC(F)(F)F)cc2)cc1.Cl [Example 18, N-[4-(2-Allylamino-ethyl)-phenyl]-N-propyl-4-trifluoromethoxy-benzenesulfonamide×HCl] |  | 24 | 0.037 µM
C=CCN(CC=C)CCc1ccc(NS(=O)(=O)c2ccc(C(C)C)cc2)cc1 [Example 19, N-[4-(2-Diallylamino-ethyl)-phenyl]-4-isopropyl-benzenesulfonamide×HCl] |  | 42 | 0.0027 µM
C=CCN(CC=C)CCc1ccc(NS(=O)(=O)c2ccc(OC(F)(F)F)cc2)cc1 [Example 20, N-[4-(2-Diallylamino-ethyl)-phenyl]-4-trifluoromethoxy-benzenesulfonamide×HCl] |  | 65 | 0.064 µM
C=CCNCCc1cccc(NS(=O)(=O)c2ccc(C(C)C)cc2)c1 [Example 21, N-[3-(2-Allylamino-ethyl)-phenyl]-4-isopropyl-benzenesulfonamide, reference compound] | 0.022 µM | 62 | 
C=CCN(CC=C)CCc1ccc(CS(=O)(=O)c2ccc(C(C)C)cc2)cc1 [Example 23, Diallyl-{2-[4-(4-isopropyl-benzenesulfonylmethyl)-phenyl]-ethyl}-amine×HCl] | 0.0084 µM | 59 | 
CCCN(CCC)CCc1ccc(CS(=O)(=O)c2ccc(C(C)C)cc2)cc1 [Example 25, Dipropyl-{2-[4-(4-isopropyl-benzenesulfonylmethyl)-phenyl]-ethyl}-amine×HCl] |  | 175 | 0.0005 µM
CCCN(CCC)CCc1ccc(CS(=O)(=O)c2ccc(OC(F)(F)F)cc2)cc1 [Example 26, Dipropyl-{2-[4-(4-trifluoromethoxy-benzenesulfonylmethyl)-phenyl]-ethyl}-dipropyl-amine×HCl] | 0.0039 µM | 170 | 
CCCNCCc1ccc(CS(=O)(=O)c2ccc(C(C)C)cc2)cc1.Cl [Example 28, {2-[4-(4-Isopropyl-benzenesulfonylmethyl)-phenyl]-ethyl}-propyl-amine×HCl] |  | 130 | 0.0048 µM
